The conditions of assay [1]: amino acids added to C-terminal α-MSH (11-13); cited from earlier work.
For assay [2], the system named is C. albicans. The assay can be described thus: C. albicans colony forming units (viability) after incubation with peptide. The format is cell-based. As to conditions: for relative potency in reducing C. albicans viability: 10^−4 M melanocortin peptides (FIG. 2 legend: all 10^−6 M); for reducing C. albicans CFU at higher concentrations: up to 10^−4 M, results not shown in the figures. On the procedure: C. albicans (clinical isolate) was obtained from the collection of the Department of Microbiology, Ospedale Maggiore di Milano and maintained on Sabouraud's agar slants and periodically transferred to Sabouraud's agar plates and incubated for 48 hours at 28° C. To prepare a stationary growth phase yeast, a colony was taken from the agar plate and transferred into 30 ml Sabouraud-dextrose broth and incubated for 72 hours at 32° C. Cells were centrifuged and suspended in Hank's balanced salt solution (“HBSS”) to the desired concentration. Viability, determined by the exclusion of 0.01% methylene blue, remained >98%.
C. albicans (1×10^6/ml in HBSS) was incubated in the presence of absence or (1-13) (SEQ ID NO: […]) or (11-13) (SEQ ID NO: 1) at concentrations in the range of 10^−15 M to 10^−6 M for 2 hours at 37° C. Cells were then washed in cold distilled water and diluted with HBSS to a concentration of 100 organisms/ml. One-ml aliquots were dispensed on blood agar plates and incubated for 48 hours at 37° C. Organism viability was estimated from the number of colonies formed.
In subsequent experiments using familiar procedures we compared activity of α-MSH (4-10) (SEQ ID NO: 2), (6-13) (SEQ ID NO: 3), (11-13) (SEQ ID NO: 1), ACTH (SEQ ID NO: 5) (1-39), (18-39) (SEQ ID NO: 6) and fluconazole, the latter an established antifungal agent. Melanocortin peptides and fluconazole were tested in concentrations of 10^−6 M to 10^−4 M. There were at least six replicates for each concentration of peptide. […]

For assay [3] the following is noted: stereochemistry analogs, Hiltz et al. 1991; cited from earlier work.
The test system of assay [4] is C. albicans. The assay can be described thus: C. albicans killing by human neutrophils. The format is cell-based. Conditions: FIG. 4; 10^−12 M to 10^−4 M; 2 hours at 37° C.; p<0.01. The method, then:
Venous blood (20 ml) from health volunteers was anticoagulated with heparin. Neutrophils were isolated using dextran sedimentation and Ficoll-Hypaque (Sigma Chemical Co., St. Louis, […]., USA) centrifugation. Erythrocytes were lysed via hypotonic shock. Neutrophils represented at least 97% of the cell suspension. Cell viability, estimated by trypan blue exclusion, was >98%. Neutrophils were suspended to a final concentration in HBSS. C. albicans (1×^6) were opsonized with human AB serum in a shaking water bath for 30 minutes at 37° C. Organisms were then incubated with neutrophils in medium or in medium with α-MSH (1-13) (SEQ ID NO: 4) or α-MSH(11-13) (SEQ ID NO: 1) in concentrations of 10^31 15 M to 10^31 4 M in a shaking water bath for 2 hours at 37° C. After incubation, the culture tubes were placed on ice stop growth and extracellular organisms were washed twice with centrifugation at 1000×g at 4° C. A 2.5% sodium desoxycholoate solution was added to obtain a suspension of […]. Two 1/100 serial dilutions in HBSS were made to obtain a final suspension of 100 cells/ml. Aliquots of 1 ml were dispensed on blood agar plates and incubated for 48 hours at 37° C. Colony forming units (CFUs) were counted at the end of the incubation period. Experiments were run in triplicate and repeated using blood from 5 different donors.

Assay [5] has as its system cAMP content of C. albicans. The assay can be described thus: cAMP content of permeabilized C. albicans (EIA). Conditions: FIG. 5; 10^−6 M, 3 minutes; increase of same order of magnitude as equimolar forskolin. The format is cell-based. On the procedure: C. albicans ([…]), permeabilized with toluene/ethanol, were incubated at 37° C. with continuous shaking in the presence of 10^31 6 M α-MSH(1-13) (SEQ ID NO: 4), (11-13) (SEQ ID NO: 1), forskolin, an agent known to increase intracellular cAMP, or in medium alone. The reaction was stopped after 3 minutes by the addition of ice cold ethanol, cAMP was measured in duplicate using a commercial enzyme immunoassay (EIA) kit (Amersham, United Kingdom) after extraction via the liquid-phase method according to manufacturer's instructions. The effect of forskolin (10^−6 M) on C. albicans colony formation was determined using the same procedure as for α-MSH peptides.

The test system of assay [6] is C. albicans. The assay can be described thus: C. albicans colony forming units (viability) after incubation with peptide. As to conditions: FIG. 1; peptide 10^−12 M to 10^−4 M; 2 hours at 37° C.; p<0.01 vs. control. The format is cell-based.
The conditions of assay [7]: versus α-MSH; cited from earlier work.

Where no end group is shown, it is not given here.

In the case of “8-13 sequence: α-MSH 8-13 sequence (RWGKPV; ends and bridges not checked; UniProt P01189 145-150, looked up, fragment)”, the “antipyretic potency relative to the 11-13 sequence” value in assay [1] was “greater than that of the 11-13 sequence”. With “9-13 sequence: α-MSH 9-13 sequence (WGKPV; ends and bridges not checked; UniProt P01189 146-150, looked up, fragment)”, the “antipyretic potency relative to the 11-13 sequence” value in assay [1] is reported as “almost devoid of activity”. As to “10-13 sequence: α-MSH 10-13, glycine added to the 11-13 sequence (GKPV; ends and bridges not checked; UniProt P01189 147-150, looked up, fragment)”, the “antipyretic potency relative to the 11-13 sequence” value in assay [1] is on record as “slightly decreased the potency”. In the case of “ACTH (1-39): adrenocortitrophic hormone (1-39) (SYSMEHFRWGKPVGKKRRPVLVYPAGEDDEASEAFPLEF)”, the “relative potency in reducing C. albicans viability” value with C. albicans [2] (FIG. 2) was “did not reduce C. albicans viability”. In addition, the “reducing C. albicans CFU at higher concentrations” value in the assay on C. albicans [2] was “ineffective”. Consider “ACTH fragment (18-39): ACTH fragment (18-39) (CLIP) (RPVLVYPAGEDDEASEAFPLEF)”, for which, in the assay on C. albicans [2] (FIG. 2), the “relative potency in reducing C. albicans viability” value is “did not reduce C. albicans viability”. In addition, in the assay on C. albicans [2], the “reducing C. albicans CFU at higher concentrations” value is on record as “ineffective”. Turning to Ac-[D-K^11]-α-MSH 11-13-NH2, the “anti-inflammatory potency/activity relative to the L-form tripeptide α-MSH 11-13” value in assay [3] is reported as “same general potency”. Consider “HFRWGKPV (Ac-HFRWGKPV-NH2) [α-MSH (6-13)]”, for which the “relative potency in reducing C. albicans viability” value in the assay on C. albicans [2] (FIG. 2) is reported as “most effective”. In the case of “KPV (Ac-Lys-Pro-Val-NH2) [α-MSH (11-13)]”, the “relative potency in reducing C. albicans viability” value in the assay on C. albicans [2] (FIG. 2) is given as “most effective”. For the same substance, the “killing of C. albicans by human neutrophils” value in the assay with C. albicans [4] was “enhanced the killing”. In addition, the “cAMP content in the yeast” value in assay [5] was “enhanced”. For the same substance, the “C. albicans colony forming units (CFU)” value in the assay with C. albicans [6] is listed as “greatly reduced”. For SYSMEHFRWGKPV [α-MSH (1-13)], the “relative potency in reducing C. albicans viability” value in the assay on C. albicans [2] (FIG. 2) is “most effective”. Besides, the “killing of C. albicans by human neutrophils” value with C. albicans [4] is given as “enhanced the killing”. Besides, the “cAMP content in the yeast” value in assay [5] is reported as “enhanced”. In the assay on C. albicans [6], the “C. albicans colony forming units (CFU)” value is reported as “greatly reduced”. Regarding “VPK-Ac-CC-Ac-KPV (Ac-CKPV; also: disulfide-linked dimer through Cys)”, the “effectiveness against microbes compared with α-MSH (11-13)” value in the assay on C. albicans [2] is listed as “at least as effective”. Further, the “C. albicans colony forming units (CFU)” value in the assay with C. albicans [6] is listed as “inhibited C. albicans colony formation”.

With [Nle^4,D-Phe^7]-α-MSH, the “potency in reducing fever relative to the parent peptide” value in assay [7] was “approximately 10 times”. In the case of “α-MSH (4-10): core α-MSH sequence (4-10), SEQ ID NO: 2”, in the assay with C. albicans [2] (FIG. 2, 10^−4 M (FIG. 2 legend: 10^−6 M), p<0.01 vs. control), the “inhibition of CFU” value was “approximately 50%”.

The values are drawn from patent US6780838B2, “Compounds for treating fungal pathologies of the oral cavity” (priority 2001, dated 2004).
